# Results from patent USRE45272E1, “β-glucuronide-linker drug conjugates” (priority 2005, dated 2014).
# Counter-ions that a name gives are not always drawn. Like-named read-outs stand apart in the source and are kept apart here. Square brackets hold non-standard residues; d marks the D form. Peptide text beside a SMILES is read from it. * marks the point of attachment. Dolaproine = CO[C@@H]([C@@H]1CCCN1)[C@@H](C)C(=O)O; Dil = CC[C@H](C)[C@H](NC)[C@@H](CC(=O)O)OC; X1 = C[C@@H](N*)[C@@H](O)c1ccccc1; NMeV = CN[C@H](C(=O)O)C(C)C
# Columns and labels:
# Format in all cases: cell-based
# [1] = test system: Caki-1 (CD70+, CD30−) renal cell carcinoma cells; experiment: In vitro growth inhibition (resazurin), Caki-1
# Procedure: (§1) In vitro growth inhibition. Cells were collected and plated in 96 well black-sided plates at a density of 10,000 cells/well in 150 μL of medium. Serial dilutions of the ADC (50 μL) were added, and incubation was carried out for 92 h at 37° C. After addition of ADC, cultures were incubated to 96 h at 37° C. Resazurin (0.25 mM, 50 μL, Sigma, St. Louis, Mo.) in medium was added and incubation was continued for 4 h. The plates were read on a Fusion HT microplate reader (Packard, Meriden, Conn.) using an excitation wavelength of 525 nm and an emission wavelength of 590 nm. Data from all assays were reduced using GraphPad Prism Version 4 for Windows (GraphPad Software, San Diego, Calif.). The IC50 concentrations compared to untreated control cells were determined using a 4 parameter curve fits.
# [2] = test system: 786-O (CD70+, CD30−) renal cell carcinoma cells; experiment: In vitro growth inhibition (resazurin), 786-O
# Procedure: as §1
# [3] = test system: Karpas 299 (CD30+, CD70−) ALCL cells; experiment: In vitro growth inhibition (resazurin), Karpas 299
# Procedure: as §1
# [4] = test system: Caki-1, 786-O and Karpas 299 cell lines; experiment: In vitro cytotoxicity, statements across Caki-1, 786-O and Karpas 299; details: for IC50: read-out: IC50 on Caki-1, 786-O and Karpas 299 (all lines)
# Procedure: as §1
# Results. […] The negative charge associated with the carboxylate group of 1b leads to reduced cytotoxic activity, presumably due to impaired intracellular access.
# The ADCs of 9b effectively delivered 1b to the targeted cells. […] Conjugates of doxorubicin drug-linker 17 gave the same general profile with effective cell kill on antigen positive cell lines and specificity values >16-fold.
# [5] = 96 h exposure, resazurin metabolism, vs untreated cells, drug content, read-out: Caki-1 (CD70+, CD30−) IC50 drug
# [6] = 96 h exposure, resazurin metabolism, vs untreated cells, drug content, read-out: 786-O (CD70+, CD30−) IC50 drug
# [7] = 96 h exposure, resazurin metabolism, vs untreated cells, drug content, read-out: Karpas 299 (CD30+, CD70−) IC50 drug
smiles,measurement,setting,value
"CC[C@H](C)[C@@H]([C@@H](CC(=O)N1CCC[C@H]1[C@H](OC)[C@@H](C)C(=O)N[C@@H](Cc1ccccc1)C(=O)O)OC)N(C)C(=O)[C@@H](NC(=O)[C@@H](NC)C(C)C)C(C)C [Compound 1b, N-methylvaline-valine-dolaisoleuine-dolaproine-phenylalanine] (HELM PEPTIDE1{[meV].V.[CC[C@H](C)[C@@H]([C@@H](CC(=O)[*:2])OC)N(C)[*:1]].[CO[C@H]([C@@H](C)C(=O)[*:2])[C@@H]1CCCN1[*:1]].F}$$$$V2.0)",IC50,[1]; [5],270 nM
same,IC50,[2]; [6],300 nM
same,IC50,[3]; [7],100 nM
same,IC50,[4]; statement for all three cell lines,100 to 200 nM
"CC[C@H](C)[C@@H]([C@@H](CC(=O)N1CCC[C@H]1[C@H](OC)[C@@H](C)C(=O)N[C@H](C)[C@@H](O)c1ccccc1)OC)N(C)C(=O)[C@@H](NC(=O)[C@@H](NC)C(C)C)C(C)C [Compound 1a, monomethyl auristatin E] (H-[NMeV]V[Dil][Dolaproine]-X1)",IC50,[1]; [5],0.11 nM
same,IC50,[2]; [6],0.19 nM
same,IC50,[3]; [7],0.09 nM
COc1cccc2c1C(=O)c1c(O)c3c(c(O)c1C2=O)C[C@@](O)(C(=O)CO)CC3OC1CC(NCCCC(OC(C)=O)OC(C)=O)C(O)C(C)O1 (stereo partly drawn) [Compound 18],IC50,"[1]; Homo sapiens, CAKI-1, 96 h, read-out: Caki-1 (CD70+, CD30−) IC50 drug nM",0.04 nM
same,IC50,"[2]; Homo sapiens, 786-0, 96 h, read-out: 786-O (CD70+, CD30−) IC50 drug nM",0.01 nM
same,IC50,"[3]; Homo sapiens, KARPAS-299, 96 h, read-out: Karpas 299 (CD30+, CD70−) IC50 drug nM",0.1 nM
same,fold more cytotoxic than doxorubicin (15),"[4]; across Caki-1, 786-O, Karpas 299",300-6500 fold
same,IC50,[4],< 0.2 nM
"COc1cccc2c1C(=O)c1c(O)c3c(c(O)c1C2=O)C[C@@](O)(C(=O)CO)C[C@@H]3O[C@H]1C[C@H](N)[C@H](O)[C@H](C)O1 [Compound 15, doxorubicin-HCl]",IC50,"[1]; Homo sapiens, CAKI-1, 96 h exposure, resazurin metabolism, vs untreated cells, drug content, read-out: Caki-1 (CD70+, CD30−) IC50 drug",110 nM
same,IC50,"[2]; Homo sapiens, 786-0, 96 h exposure, resazurin metabolism, vs untreated cells, drug content, read-out: 786-O (CD70+, CD30−) IC50 drug",65 nM
same,IC50,"[3]; Homo sapiens, KARPAS-299, 96 h exposure, resazurin metabolism, vs untreated cells, drug content, read-out: Karpas 299 (CD30+, CD70−) IC50 drug",29 nM
